Test results taken from paper PMC9828493, “Design, Synthesis, and in Vitro Evaluation of 4‐(4‐Hydroxyphenyl)piperazine‐Based Compounds Targeting Tyrosinase” (Chemmedchem, 2022).
Where two headings read alike, the source gives them in different places.

Legend:
[1] = test system: B16F10 cells; experiment: Cell viability assay (MTT); format: cell-based, Murine; details: 48 h; for cytotoxic effect (MTT): until a concentration of 10 μM
Protocol: Murine melanoma B16F10 cells (CRL‐6475) were cultured as previous reported.[17]
3‐(4,5‐Dimethylthiazol‐2‐yl)‐2,5‐diphenyltetrazolium bromide (MTT) was used to measure the cells viability. Cells were seeded in 96‐well plates for 24 hours with a density of 5x10^3 for well. Cells were then treated for 48 h with compounds (ranging from 4 μM to 100 μM). After incubation at 37 °C and 5 % of CO2, 100 μL of MTT reagent were added to the cells and incubated 3 h at 37 °C. After adding DMSO the absorbance was determined at 560 nm. The amount of living cells in treated samples relative to untreated controls (100 %) provided the cell viability. The mean value and standard deviation (SD) were calculated from triplicate experiments.
different concentrations of compounds (4-100 μM) and their viability was evaluated by MTT assay. Data
represent mean ± SD of triplicate experiments.

[2] = ABTS radical scavenging antioxidant assay; details: mean ± SD of three independent experiments
Protocol: ABTS [2,20‐azinobis‐(3‐ethylbenzothiazoline‐6‐sulfonic acid)] assay was used to determine the total free radical‐scavenging capacity of compounds. 6‐hydroxy‐2,5,7,8‐tetramethylchromane‐2‐carboxylic acid (Trolox) was used as the reference antioxidant.[15]
The ABTS⋅^+ method is based on the capacity of an antioxidant to scavenge the free ABTS⋅^+. To produce this radical an aqueous mixture of 7 mM ABTS with 2.45 mM potassium persulfate was required.
The ABTS solution was kept in the dark, at room temperature, for 24 h before use. The ABTS⋅^+ mixture was diluted, and each compound (10 μL) was added to solution. After 1 min of incubation the absorbance was recorded at 734 nm. Afterwards the decrease in A734 was calculated and referred to the Trolox standard curve. Antioxidant activity was expressed as concentration of the compound to give a 50 % reduction in the original absorbance (EC50).

[3] = target: T1, TYR from Agaricus bisporus (AbTYR) (Agaricus bisporus, UniProt C7FF04); experiment: Inhibition of diphenolase activity of AbTYR (L-DOPA as substrate); details: for IC50: IC50 [μM]±SD, inhibition of diphenolase activity of AbTYR, L-DOPA substrate, three replicates;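 on all read-outs here: absorbance measured spectrophotometrically with L-DOPA as substrate, inhibition expressed as percent relative to control sample, IC50 interpolated from dose-response curves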
Protocol: (§1) absorbance was measured after 60 or 1 min of incubation time in the reaction mixture containing
(§2) L-tyrosine or L-DOPA, respectively. The inhibitory activity was expressed as inhibition percentage
(§3) calculated by interpolation of the dose-response curves. Kojic acid [5-hydroxy-2-(hydroxymethyl)-
(§4) 4H-pyran-4-one], a fungal secondary metabolite used as skin whitening agent, was employed as a
(§5) positive standard (10–50 μM). A spectrophotometer (Agilent Cary 60 UV-Vis Spectrophotometer)
(§6) The inhibition kinetics on the tyrosinase were studied using Lineweaver-Burk double reciprocal
(§7) plots. The reaction mixture consisted of four different concentrations of the substrate L-DOPA
(§8) (0.6–5 mM), and mushroom tyrosinase in phosphate buffer (0.05 M, pH 6.8). Three different
(§9) concentrations were used for the analysis. Preincubation and measurement time were the same
(§10) as discussed in mushroom tyrosinase inhibition assay. The Michaelis-Menten constant (Km) and
(§11) maximal velocity (Vmax) of tyrosinase were determined by Lineweaver-Burk plots.

[4] = test system: tyrosinase activity in α‐MSH‐stimulated B16F10 cells; experiment: Tyrosinase zymography (L-DOPA staining) in α-MSH-stimulated B16F10 cells; format: cell-based, Murine; details: Mus musculus, B16-F10, α-MSH (100 nM)-stimulated B16F10 cells, 48 h, read-out: inhibition of tyrosinase activity / melanogenesis
Protocol: ImageJ software was used to determine the intensity of bands.
A day after seeding the B16F10 cells (6×10^4 cells/mL) the culture medium was substituted by fresh one supplemented with 100 nM α‐MSH.
After incubation for 48 h, cells were washed and lysed using phosphate buffer (25 mM, pH 6.8) containing Triton X‐100 (1 %) and phenylmethyl‐sulfonyl fluoride (0.1 mM). Cellular lysates were centrifugated at 13000 rpm for 20 min at 4 °C. The protein content was determined by Bradford method and BSA was used as standard.
SDS‐polyacrylamide gel electrophoresis was used to resolve the protein extracts previously mixed with 10 mM Tris‐HCl buffer, pH 7.0, containing 1 % SDS, without mercaptoethanol.
After running, gel was rinsed in phosphate buffer (0.1 M, pH 7.0) and equilibrated for 30 min twice. […] Tyrosinase activity was visualized in the gel as dark melanin‐containing bands

[5] = target: T1, TYR from Agaricus bisporus (AbTYR); experiment: Inhibition of monophenolase activity of AbTYR (L-Tyr as substrate); format: biochemical; parameters: purchased Sigma Chemical Co. (St. Louis, MO, USA); details: 40 μM (Figure S69)
Protocol: Mushroom tyrosinase inhibition assay
6.8). […] Subsequently, 0.05 mL of
L-tyrosine or L-DOPA, respectively.
respect to control sample.
positive standard (10–50 μM).
was used for absorbance measurements.
Kinetic analysis of the tyrosinase inhibition

[6] = target: T1, TYR from Agaricus bisporus (AbTYR); experiment: Kinetic analysis of AbTYR inhibition (Lineweaver-Burk plots, L-DOPA); details: L-DOPA 0.6–5 mM, three inhibitor concentrations, phosphate buffer pH 6.8
Protocol: Kinetics studies were performed in presence of three different concentrations of selected inhibitors, L‐DOPA (0.6–5 mM) and AbTYR in phosphate buffer (0.05 M, pH 6.8).
as §1, §2, §3, §4, §5, §6, §7, §8, §9, §10, §11

[7] = positive control; read-out: EC50 [μM], antioxidant activity (ABTS); cited from earlier work
[8] = target: T1, TYR from Agaricus bisporus (AbTYR); parameters: purchased Sigma Chemical Co. (St. Louis, MO, USA); details: previous paper; read-out: IC50, inhibition of AbTYR; cited from earlier work

T1 sequence (C7FF04 1-392 limits assumed): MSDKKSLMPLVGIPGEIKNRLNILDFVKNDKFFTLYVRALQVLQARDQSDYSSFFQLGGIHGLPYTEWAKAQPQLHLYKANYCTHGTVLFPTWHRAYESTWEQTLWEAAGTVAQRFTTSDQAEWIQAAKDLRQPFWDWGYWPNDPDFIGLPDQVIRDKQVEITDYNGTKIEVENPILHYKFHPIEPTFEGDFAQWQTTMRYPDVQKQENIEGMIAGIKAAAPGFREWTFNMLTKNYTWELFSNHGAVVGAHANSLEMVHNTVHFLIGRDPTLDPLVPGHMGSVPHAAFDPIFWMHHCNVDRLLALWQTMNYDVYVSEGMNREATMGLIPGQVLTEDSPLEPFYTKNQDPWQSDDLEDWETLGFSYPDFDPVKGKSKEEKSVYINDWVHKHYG

SMILES | cytotoxic effect (MTT) [1] | EC50 [2] [µM] | IC50 [3] [µM] | inhibitory effect on monophenolase activity of AbTYR [5] | mechanism of inhibition of AbTYR [6] | further results
O=C(c1ccc(Cl)cc1Cl)N1CCN(c2ccc(O)cc2)CC1 [compound 10, (4‐(4‐Hydroxyphenyl)piperazin‐1‐yl)(2,4‐dichlorophenyl)methanone] | no cytotoxic effect | 9 ± 0.3 | 1.5 ± 0.1 | active inhibitors | competitive inhibitors | cell viability (MTT) ([1]; until 25 μM): good cell viability; melting point: 177 to 178 °C; inhibition at 1 µM ([4]; 1 μM): 44%; inhibition at 10 µM ([4]; 10 μM): 73%; inhibition at 25 µM ([4]; 25 μM): 88%
COc1ccccc1C(=O)N1CCN(c2ccc(O)cc2)CC1 [compound 21, [4‐(4‐Hydroxyphenyl)piperazin‐1‐yl](2‐methoxyphenyl)methanone] | no cytotoxic effect | 9.2 ± 0.2 | 3.5 ± 0.2 | active inhibitors | competitive inhibitors | fold more potent than reference compound KA [3]: about 3.5 fold
Cc1c(C)c2c(c(C)c1O)CCC(C)(C(=O)O)O2 (stereo not drawn) [Trolox, 6‐hydroxy‐2,5,7,8‐tetramethylchromane‐2‐carboxylic acid] |  |  |  |  |  | EC50 [7]: 13 ± 1.1 µM
O=C(CN1CCC(Cc2ccccc2)CC1)N1CCN(c2ccc(O)cc2)CC1 [A, 2‐(4‐benzyl‐1‐piperidinyl)‐1‐[4‐(4‐hydroxyphenyl)piperazin‐1‐yl]ethenone] |  |  |  |  |  | IC50 [8]: 3.8 µM
